Where a name gives a salt, the structure may show the parent alone. Active and inactive are the calls of the source. Rule as the data show it, for most assays here: actives have a measured Kd and inactives only a lower limit.
Key:
[1] = molecular target: 5'-AMP-activated protein kinase catalytic subunit alpha-1 (Homo sapiens, UniProt Q13131)
[2] = molecular target: RAC-gamma serine/threonine-protein kinase (Homo sapiens, UniProt Q9Y243)
Septin-9 = molecular target: T1, Septin-9 (Homo sapiens, UniProt Q9UHD8)
T1 sequence (Q9UHD8 whole entry): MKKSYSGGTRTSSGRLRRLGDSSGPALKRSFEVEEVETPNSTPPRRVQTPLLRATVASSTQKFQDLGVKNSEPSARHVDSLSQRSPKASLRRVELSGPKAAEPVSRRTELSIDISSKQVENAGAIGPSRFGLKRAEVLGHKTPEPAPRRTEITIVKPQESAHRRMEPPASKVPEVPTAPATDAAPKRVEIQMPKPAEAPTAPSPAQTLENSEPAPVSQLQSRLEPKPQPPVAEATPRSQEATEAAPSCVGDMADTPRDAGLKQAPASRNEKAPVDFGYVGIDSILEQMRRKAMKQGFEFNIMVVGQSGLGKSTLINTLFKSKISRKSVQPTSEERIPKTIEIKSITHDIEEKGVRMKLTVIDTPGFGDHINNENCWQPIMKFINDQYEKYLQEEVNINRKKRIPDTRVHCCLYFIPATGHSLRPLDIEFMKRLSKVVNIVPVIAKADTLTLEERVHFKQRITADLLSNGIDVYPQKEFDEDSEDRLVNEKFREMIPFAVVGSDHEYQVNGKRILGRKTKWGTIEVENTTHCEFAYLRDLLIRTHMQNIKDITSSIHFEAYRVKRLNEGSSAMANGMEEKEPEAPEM

[3] = molecular target: Protein kinase C alpha type (Homo sapiens, UniProt P17252)
[4] = molecular target: Hepatocyte growth factor receptor (Homo sapiens, UniProt P08581)
Chain of Hepatocyte growth factor receptor (P08581 whole entry): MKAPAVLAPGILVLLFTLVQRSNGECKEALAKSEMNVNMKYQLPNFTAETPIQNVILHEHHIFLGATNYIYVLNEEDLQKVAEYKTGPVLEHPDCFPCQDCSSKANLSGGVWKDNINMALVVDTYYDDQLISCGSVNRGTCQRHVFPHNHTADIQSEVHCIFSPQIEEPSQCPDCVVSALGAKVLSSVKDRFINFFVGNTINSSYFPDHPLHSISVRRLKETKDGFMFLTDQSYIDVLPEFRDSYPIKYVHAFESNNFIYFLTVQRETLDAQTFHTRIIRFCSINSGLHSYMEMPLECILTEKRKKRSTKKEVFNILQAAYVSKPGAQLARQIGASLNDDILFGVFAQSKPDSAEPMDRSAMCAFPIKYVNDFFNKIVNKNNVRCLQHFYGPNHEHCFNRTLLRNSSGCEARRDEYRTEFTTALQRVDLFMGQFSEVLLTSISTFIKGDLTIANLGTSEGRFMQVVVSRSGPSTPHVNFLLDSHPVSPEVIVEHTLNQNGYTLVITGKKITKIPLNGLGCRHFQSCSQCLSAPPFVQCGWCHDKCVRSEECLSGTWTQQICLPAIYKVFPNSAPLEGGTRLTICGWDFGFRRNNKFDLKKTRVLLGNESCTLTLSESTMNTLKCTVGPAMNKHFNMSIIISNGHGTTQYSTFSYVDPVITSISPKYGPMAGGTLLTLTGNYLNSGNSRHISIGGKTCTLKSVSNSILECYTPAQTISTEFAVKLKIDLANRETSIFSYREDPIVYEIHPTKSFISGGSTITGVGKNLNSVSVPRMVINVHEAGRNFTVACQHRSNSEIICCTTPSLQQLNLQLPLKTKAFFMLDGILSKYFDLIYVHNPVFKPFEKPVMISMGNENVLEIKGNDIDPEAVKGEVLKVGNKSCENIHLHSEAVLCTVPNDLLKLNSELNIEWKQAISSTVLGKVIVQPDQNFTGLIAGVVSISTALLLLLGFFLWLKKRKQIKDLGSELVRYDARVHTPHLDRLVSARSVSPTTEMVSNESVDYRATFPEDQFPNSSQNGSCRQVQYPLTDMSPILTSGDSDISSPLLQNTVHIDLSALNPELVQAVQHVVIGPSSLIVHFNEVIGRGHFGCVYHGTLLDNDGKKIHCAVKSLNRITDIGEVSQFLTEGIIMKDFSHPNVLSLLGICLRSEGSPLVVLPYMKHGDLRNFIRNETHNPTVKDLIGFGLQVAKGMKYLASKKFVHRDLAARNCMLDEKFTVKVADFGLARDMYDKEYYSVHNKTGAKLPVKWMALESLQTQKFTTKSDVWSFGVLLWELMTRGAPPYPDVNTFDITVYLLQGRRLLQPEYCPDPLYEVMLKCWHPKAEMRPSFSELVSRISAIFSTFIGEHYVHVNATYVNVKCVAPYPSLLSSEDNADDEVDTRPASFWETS

[5] = molecular target: Tyrosine-protein kinase FRK (Homo sapiens, UniProt P42685)
Chain of Tyrosine-protein kinase FRK (P42685 whole entry): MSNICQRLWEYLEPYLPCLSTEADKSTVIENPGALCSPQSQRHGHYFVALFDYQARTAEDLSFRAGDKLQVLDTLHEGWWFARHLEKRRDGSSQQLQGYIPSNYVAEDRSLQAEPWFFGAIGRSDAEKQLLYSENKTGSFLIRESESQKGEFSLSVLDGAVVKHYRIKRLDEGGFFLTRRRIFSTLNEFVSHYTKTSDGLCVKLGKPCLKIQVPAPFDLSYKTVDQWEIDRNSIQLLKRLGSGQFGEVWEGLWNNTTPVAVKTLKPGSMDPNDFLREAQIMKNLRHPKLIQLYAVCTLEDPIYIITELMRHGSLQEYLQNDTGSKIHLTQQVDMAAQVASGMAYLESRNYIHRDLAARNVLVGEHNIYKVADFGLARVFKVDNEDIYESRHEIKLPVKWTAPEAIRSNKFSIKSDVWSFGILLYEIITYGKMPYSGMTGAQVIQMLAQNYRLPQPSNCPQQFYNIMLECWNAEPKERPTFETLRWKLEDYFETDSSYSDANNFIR

[6] = molecular target: T2, EKC/KEOPS complex subunit TP53RK (Homo sapiens, UniProt Q96S44)
T2 sequence (Q96S44 whole entry): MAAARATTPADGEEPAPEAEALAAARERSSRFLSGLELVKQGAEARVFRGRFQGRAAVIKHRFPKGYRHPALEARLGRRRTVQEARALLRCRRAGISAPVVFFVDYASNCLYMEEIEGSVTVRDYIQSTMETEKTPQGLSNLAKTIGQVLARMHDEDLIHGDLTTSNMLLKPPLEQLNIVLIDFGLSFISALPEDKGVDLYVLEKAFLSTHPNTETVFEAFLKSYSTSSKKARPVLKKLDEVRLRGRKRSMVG

[7] = molecular target: T3, Serine/threonine-protein kinase Nek9 (Homo sapiens, UniProt Q8TD19)
T3 sequence (Q8TD19 whole entry): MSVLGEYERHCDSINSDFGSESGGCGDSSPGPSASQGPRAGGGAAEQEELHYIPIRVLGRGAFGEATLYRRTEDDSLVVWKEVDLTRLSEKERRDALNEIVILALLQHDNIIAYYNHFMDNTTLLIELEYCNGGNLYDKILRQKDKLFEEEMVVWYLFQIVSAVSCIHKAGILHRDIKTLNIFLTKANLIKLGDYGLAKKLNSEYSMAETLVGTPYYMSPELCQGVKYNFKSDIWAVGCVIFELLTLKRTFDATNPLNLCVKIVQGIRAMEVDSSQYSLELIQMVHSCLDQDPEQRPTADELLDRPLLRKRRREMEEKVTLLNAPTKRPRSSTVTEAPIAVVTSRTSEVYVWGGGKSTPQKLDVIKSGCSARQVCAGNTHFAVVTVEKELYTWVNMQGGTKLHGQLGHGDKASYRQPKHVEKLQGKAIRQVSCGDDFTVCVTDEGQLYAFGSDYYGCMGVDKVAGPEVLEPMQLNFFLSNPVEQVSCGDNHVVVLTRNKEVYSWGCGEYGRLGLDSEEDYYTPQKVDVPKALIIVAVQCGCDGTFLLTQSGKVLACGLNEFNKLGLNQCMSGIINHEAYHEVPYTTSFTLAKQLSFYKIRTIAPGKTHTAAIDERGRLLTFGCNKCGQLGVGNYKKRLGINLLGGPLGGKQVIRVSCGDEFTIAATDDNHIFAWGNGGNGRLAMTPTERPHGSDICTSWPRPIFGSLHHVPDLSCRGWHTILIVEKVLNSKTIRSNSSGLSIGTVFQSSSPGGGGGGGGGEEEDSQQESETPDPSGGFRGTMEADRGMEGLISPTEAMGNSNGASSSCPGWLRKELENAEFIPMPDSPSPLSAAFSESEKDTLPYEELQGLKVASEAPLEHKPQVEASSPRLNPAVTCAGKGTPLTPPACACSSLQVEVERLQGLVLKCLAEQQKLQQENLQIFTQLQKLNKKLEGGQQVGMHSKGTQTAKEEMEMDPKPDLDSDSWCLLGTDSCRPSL

[8] = molecular target: T4, Mitogen-activated protein kinase kinase kinase kinase 3 (Homo sapiens, UniProt Q8IVH8)
T4 sequence (Q8IVH8 whole entry): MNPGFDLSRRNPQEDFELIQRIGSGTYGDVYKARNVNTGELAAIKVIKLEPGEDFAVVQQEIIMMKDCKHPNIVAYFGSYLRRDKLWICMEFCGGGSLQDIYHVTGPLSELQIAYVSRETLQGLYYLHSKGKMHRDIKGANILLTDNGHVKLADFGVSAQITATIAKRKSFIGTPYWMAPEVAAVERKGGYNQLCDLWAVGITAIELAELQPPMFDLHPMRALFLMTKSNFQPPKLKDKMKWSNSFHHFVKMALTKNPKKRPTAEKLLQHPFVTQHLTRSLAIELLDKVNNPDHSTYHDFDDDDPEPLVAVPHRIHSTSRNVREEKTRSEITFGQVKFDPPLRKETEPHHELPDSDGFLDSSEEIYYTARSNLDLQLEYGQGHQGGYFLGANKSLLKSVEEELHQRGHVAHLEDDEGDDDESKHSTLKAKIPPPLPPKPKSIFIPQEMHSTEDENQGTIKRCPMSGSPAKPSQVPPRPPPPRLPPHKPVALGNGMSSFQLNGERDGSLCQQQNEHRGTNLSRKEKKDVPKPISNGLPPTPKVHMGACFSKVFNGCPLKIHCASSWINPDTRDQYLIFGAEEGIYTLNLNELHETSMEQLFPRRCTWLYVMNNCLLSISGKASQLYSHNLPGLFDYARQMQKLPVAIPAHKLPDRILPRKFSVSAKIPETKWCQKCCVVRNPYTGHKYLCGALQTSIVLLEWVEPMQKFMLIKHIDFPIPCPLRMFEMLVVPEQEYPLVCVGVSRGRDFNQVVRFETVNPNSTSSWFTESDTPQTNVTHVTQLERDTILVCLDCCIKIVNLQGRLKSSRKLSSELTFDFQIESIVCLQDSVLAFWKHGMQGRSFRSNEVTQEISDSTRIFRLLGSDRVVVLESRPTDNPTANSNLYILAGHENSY
Also: in the data inactive means no Kd found up to 30 µM.

Chain of RAC-gamma serine/threonine-protein kinase (Q9Y243 whole entry): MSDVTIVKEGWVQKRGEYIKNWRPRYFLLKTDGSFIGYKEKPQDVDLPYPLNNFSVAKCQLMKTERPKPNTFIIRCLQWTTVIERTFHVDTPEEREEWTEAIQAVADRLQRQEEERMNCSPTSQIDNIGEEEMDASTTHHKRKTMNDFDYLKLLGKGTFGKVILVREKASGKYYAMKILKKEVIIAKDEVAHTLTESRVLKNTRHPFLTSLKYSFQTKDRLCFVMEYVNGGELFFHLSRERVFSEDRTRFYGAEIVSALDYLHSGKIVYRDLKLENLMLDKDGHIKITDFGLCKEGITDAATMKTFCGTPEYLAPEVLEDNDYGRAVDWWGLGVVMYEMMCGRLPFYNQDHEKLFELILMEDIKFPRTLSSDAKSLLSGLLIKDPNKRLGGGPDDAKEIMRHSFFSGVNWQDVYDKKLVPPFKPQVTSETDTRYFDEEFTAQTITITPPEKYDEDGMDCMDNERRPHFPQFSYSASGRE
Chain of 5'-AMP-activated protein kinase catalytic subunit alpha-1 (Q13131 whole entry): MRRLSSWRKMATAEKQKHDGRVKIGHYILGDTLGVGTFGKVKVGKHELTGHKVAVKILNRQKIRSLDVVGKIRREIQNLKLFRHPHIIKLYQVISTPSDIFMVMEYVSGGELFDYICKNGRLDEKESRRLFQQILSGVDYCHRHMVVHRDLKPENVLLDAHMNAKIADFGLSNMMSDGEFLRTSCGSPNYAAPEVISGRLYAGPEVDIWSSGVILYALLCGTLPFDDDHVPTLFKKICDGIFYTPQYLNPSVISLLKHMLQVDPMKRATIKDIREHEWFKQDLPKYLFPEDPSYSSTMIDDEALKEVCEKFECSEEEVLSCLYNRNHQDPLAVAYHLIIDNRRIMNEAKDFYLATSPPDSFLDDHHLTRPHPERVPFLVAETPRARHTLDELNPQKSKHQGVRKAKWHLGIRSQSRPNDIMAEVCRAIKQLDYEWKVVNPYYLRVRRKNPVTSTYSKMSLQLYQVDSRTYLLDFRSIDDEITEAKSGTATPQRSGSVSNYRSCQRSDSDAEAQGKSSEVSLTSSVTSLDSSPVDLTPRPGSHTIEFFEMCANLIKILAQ

| Kd [1] | Kd [2] | Kd (Septin-9) | Kd [3] | Kd [4] | Kd [5] | Kd [6] | Kd [8] | SMILES | Kd [7] |
| --- | --- | --- | --- | --- | --- | --- | --- | --- | --- |
| > 30 µM (inactive) | > 30 µM (inactive) | > 30 µM (inactive) | > 30 µM (inactive) | > 30 µM (inactive) | 0.85 µM | > 30 µM (inactive) | > 30 µM (inactive) | COc1cc2ncnc(Oc3cccc(NC(=O)Nc4cc(C(C)(C)C(F)(F)F)on4)c3)c2cc1OC [CEP-32496] | > 30 µM (inactive) |
| > 30 µM (inactive) | > 30 µM (inactive) | > 30 µM (inactive) | > 30 µM (inactive) | > 30 µM (inactive) | > 30 µM (inactive) | > 30 µM (inactive) | > 30 µM (inactive) | C#Cc1cccc(Nc2ncnc3cc(OC)c(OCCCCCCC(=O)NO)cc23)c1 [CUDC-101] | > 30 µM (inactive) |
| > 30 µM (inactive) | > 30 µM (inactive) | > 30 µM (inactive) | > 30 µM (inactive) | > 30 µM (inactive) | > 30 µM (inactive) | > 30 µM (inactive) | > 30 µM (inactive) | COCC(=O)NC/C=C/c1ccc2ncnc(Nc3ccc(Oc4ccc(C)nc4)c(C)c3)c2c1 [CP-724714] | > 30 µM (inactive) |
| 0.006 µM (active) | > 30 µM (inactive) | > 30 µM (inactive) | 0.873 µM (active) | > 30 µM (inactive) | > 30 µM (inactive) | > 30 µM (inactive) | 2.19 µM (active) | Cc1nc(Nc2n[nH]c3c2CN(C(=O)N[C@H](CN(C)C)c2ccccc2)C3(C)C)c2sccc2n1 [PF-03758309] | > 30 µM (inactive) |

The next lines start with the compound.

| SMILES | Kd [1] | Kd [2] | Kd (Septin-9) | Kd [3] | Kd [4] | Kd [5] | Kd [6] | Kd [8] | Kd [7] |
| --- | --- | --- | --- | --- | --- | --- | --- | --- | --- |
| Cc1cc(Nc2ncnc3ccc(NC4=NC(C)(C)CO4)cc23)ccc1Oc1ccn2ncnc2c1 [TUCATINIB] | > 30 µM (inactive) | > 30 µM (inactive) | > 30 µM (inactive) | > 30 µM (inactive) | > 30 µM (inactive) | > 30 µM (inactive) | > 30 µM (inactive) | > 30 µM (inactive) | > 30 µM (inactive) |
| O=C(Cc1ccc(-c2ccc(OCCN3CCOCC3)cc2)cn1)NCc1ccccc1 [TIRBANIBULIN] | > 30 µM (inactive) | > 30 µM (inactive) | > 30 µM (inactive) | > 30 µM (inactive) | > 30 µM (inactive) | > 30 µM (inactive) | > 30 µM (inactive) | > 30 µM (inactive) | > 30 µM (inactive) |
| CCS(=O)(=O)N1CCN(c2ccc(Nc3ncc(C(N)=O)c(NC4CC4)n3)cc2)CC1 [Cerdulatinib Hydrochloride] | 10.8 µM (active) | > 30 µM (inactive) | > 30 µM (inactive) | > 30 µM (inactive) | > 30 µM (inactive) | > 30 µM (inactive) | > 30 µM (inactive) | 0.033 µM (active) | > 30 µM (inactive) |
| Cc1nc2cc(-c3nn(C(C)C)c4ncnc(N)c34)ccc2o1 | > 30 µM (inactive) | > 30 µM (inactive) | > 30 µM (inactive) | 21.8 µM (active) | > 30 µM (inactive) | > 30 µM (inactive) | > 30 µM (inactive) | > 30 µM (inactive) | > 30 µM (inactive) |
| O=C1NC(=O)[C@@H](c2cn3c4c(cccc24)CCC3)[C@@H]1c1c[nH]c2ccccc12 [TIVANTINIB] | > 30 µM (inactive) | > 30 µM (inactive) | > 30 µM (inactive) | > 30 µM (inactive) | 0.511 µM (active) | > 30 µM (inactive) | > 30 µM (inactive) | > 30 µM (inactive) | > 30 µM (inactive) |
| CO[C@H]1C[C@@H]2CC[C@@H](C)[C@@](O)(O2)C(=O)C(=O)N2CCCC[C@H]2C(=O)O[C@H]([C@H](C)C[C@@H]2CC[C@@H](OP(C)(C)=O)[C@H](OC)C2)CC(=O)[C@H](C)/C=C(\C)[C@@H](O)[C@@H](OC)C(=O)[C@H](C)C[C@H](C)/C=C/C=C/C=C/1C [RIDAFOROLIMUS] | > 30 µM (inactive) | > 30 µM (inactive) | > 30 µM (inactive) | > 30 µM (inactive) | > 30 µM (inactive) | > 30 µM (inactive) | > 30 µM (inactive) | > 30 µM (inactive) | > 30 µM (inactive) |
| Cc1nc(NC(=O)N2CCC[C@H]2C(N)=O)sc1-c1ccnc(C(C)(C)C(F)(F)F)c1 [ALPELISIB] | > 30 µM (inactive) | > 30 µM (inactive) | > 30 µM (inactive) | > 30 µM (inactive) | > 30 µM (inactive) | > 30 µM (inactive) | > 30 µM (inactive) | > 30 µM (inactive) | > 30 µM (inactive) |
| Cc1cnc(NC(=O)Nc2cc(Br)c(C)cc2OC[C@@H]2CNCCO2)cn1 [RABUSERTIB] | > 30 µM (inactive) | > 30 µM (inactive) | > 30 µM (inactive) | > 30 µM (inactive) | > 30 µM (inactive) | > 30 µM (inactive) | > 30 µM (inactive) | > 30 µM (inactive) | > 30 µM (inactive) |
| Cc1cccc(-c2nn3c(c2-c2ccnc4ccc(C(N)=O)cc24)CCC3)n1 [GALUNISERTIB] | > 30 µM (inactive) | > 30 µM (inactive) | > 30 µM (inactive) | > 30 µM (inactive) | > 30 µM (inactive) | > 30 µM (inactive) | > 30 µM (inactive) | > 30 µM (inactive) | > 30 µM (inactive) |
| O=C(Nc1nc2cccc(-c3ccc(CN4CCS(=O)(=O)CC4)cc3)n2n1)C1CC1 [FILGOTINIB] | > 30 µM (inactive) | > 30 µM (inactive) | > 30 µM (inactive) | > 30 µM (inactive) | > 30 µM (inactive) | > 30 µM (inactive) | > 30 µM (inactive) | > 30 µM (inactive) | > 30 µM (inactive) |
